Legend:
Experiment in all cases: relative viability (nuclei count vs DMSO), 5 days (fraction); higher = more cells survive
[1] = compound: CCn1c(-c2nonc2N)nc2cnc(Oc3cccc(NC(=O)c4ccc(OCCN5CCOCC5)cc4)c3)cc21 + CC(C)C[C@H](NC(=O)[C@H](Cc1ccccc1)NC(=O)c1cnccn1)B(O)O [Bortezomib] (partner 0.002 µM)
Method in brief: (§1)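 Lung cancer cell lines in 1536-well plates were dosed by pin tool the day after seeding, either with one drug alone or with a fixed anchor-drug dose plus five library-drug doses (not always all listed) in √10 steps. After 5 days, cells were fixed and their nuclei stained in one step (final 0.05% Triton X-100, 1% formaldehyde, 1 ug/ml Hoechst), then counted on 4× images. Relative viability is the nuclei count in treated wells divided by that in vehicle wells. Values are medians of duplicate plates.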

[2] = compound: CCC1=CN=CN=C1N2CCN(CC2)CC3=NC4=C(N3)C=C(C=C4)C(F)(F)F + CC1(C)CCC(c2ccc(Cl)cc2)=C(CN2CCN(c3ccc(C(=O)NS(=O)(=O)c4ccc(N[C@H](CCN5CCOCC5)CSc5ccccc5)c(S(=O)(=O)C(F)(F)F)c4)cc3)CC2)C1 [Navitoclax] (partner 0.5 µM)
Method in brief: as §1

[3] = compound: CCn1c(-c2nonc2N)nc2cnc(Oc3cccc(NC(=O)c4ccc(OCCN5CCOCC5)cc4)c3)cc21 + C[C@]1(O)C[C@@H](c2nc(-c3ccc4ccc(-c5ccccc5)nc4c3)c3c(N)nccn32)C1 [Linsitinib] (partner 1 µM)
Method in brief: as §1

[4] = compound: CCC1=CN=CN=C1N2CCN(CC2)CC3=NC4=C(N3)C=C(C=C4)C(F)(F)F + CS(=O)(=O)CCNCc1ccc(-c2ccc3ncnc(Nc4ccc(OCc5cccc(F)c5)c(Cl)c4)c3c2)o1 [Lapatinib] (partner 2 µM)
Method in brief: as §1

Cell Line	relative viability ([1]; first compound 0.04 µM)	relative viability ([1]; first compound 0.1265 µM)	relative viability ([1]; first compound 0.4 µM)	relative viability ([1]; first compound 1.265 µM)	relative viability ([1]; first compound 4 µM)	relative viability ([2]; first compound 0.04 µM)	relative viability ([2]; first compound 0.1265 µM)	relative viability ([2]; first compound 0.4 µM)	relative viability ([2]; first compound 1.265 µM)	relative viability ([2]; first compound 4 µM)	relative viability ([3]; first compound 0.04 µM)	relative viability ([3]; first compound 0.1265 µM)	relative viability ([3]; first compound 0.4 µM)	relative viability ([3]; first compound 1.265 µM)	relative viability ([3]; first compound 4 µM)	relative viability ([4]; first compound 0.04 µM)	relative viability ([4]; first compound 0.1265 µM)	relative viability ([4]; first compound 0.4 µM)	relative viability ([4]; first compound 1.265 µM)	relative viability ([4]; first compound 4 µM)
NCI-H1355	1.22	1.27	1.02	0.72	0.621	0.987	0.919	0.903	0.806	0.973	0.904	0.77	0.802	0.834	0.812	1	0.812	0.952	0.844	1.1
EKVX	1.22	1.05	0.902	0.932	1.02	0.96	0.96	0.886	0.724	0.977	1.42	1.02	1.08	0.813	0.976	0.212	0.198	0.227	0.174	0.216
NCI-H460	1.09	1.03	0.716	0.5	0.26	1.25	1.01	1.01	1.09	1.11	1.35	0.794	0.513	0.144	0.135	1.09	0.973	0.878	0.812	0.936
NCI-H1975	0.244	0.263	0.227	0.177	0.165	1.15	1.08	1.06	0.879	0.931	0.833	0.65	0.895	0.385	0.293	1.16	0.824	0.851	0.739	0.846
HCC-78	0.465	0.53	0.494	0.605	0.705	0.654	0.832	0.831	0.476	0.525	0.673	0.498	0.551	0.664	0.621	0.458	0.363	0.726	0.548	0.463
NCI-H2085	1.11	1.01	0.86	0.872	0.861	1.11	1.02	1.21	1.18	0.911	1.02	0.9	0.756	0.792	0.683	0.713	0.704	0.797	0.571	0.784
H3255	1.03	0.9	0.728	0.526	0.531	0.489	0.469	0.507	0.49	0.529	1.2	0.952	0.99	0.62	0.768	0.241	0.238	0.218	0.234	0.246
NCI-H2126	1.14	1.13	0.918	1.08	1.08	0.818	0.818	0.839	0.794	0.867	0.759	0.704	0.679	0.759	0.742	0.772	0.713	0.708	0.736	0.838
LC-2-ad	1.1	0.936	0.756	0.448	0.281	0.459	0.603	0.522	0.324	0.351	0.936	0.899	0.756	0.55	0.352	1.07	0.898	0.899	0.945	0.925
RERF-LC-KJ	1.32	1.31	1.01	0.731	0.754	0.906	0.887	0.956	0.698	0.719	1.06	0.976	0.877	0.721	0.637	0.81	0.811	0.863	0.79	0.825
EBC-1	0.771	0.566	0.537	0.458	0.342	0.422	0.49	0.396	0.415	0.434	0.852	1.09	0.78	0.79	0.876	0.224	0.3	1.47	1.52	1.31
HCC-15	1.2	0.992	0.882	0.757	0.913	0.702	0.67	0.757	0.694	0.71	1.15	0.88	0.901	0.825	0.883	0.847	0.814	0.839	0.828	0.865
NCI-H1563	0.793	0.821	0.669	0.753	0.603	–	–	–	–	–	1.1	1.1	1.12	0.884	0.869	0.903	0.908	0.984	0.715	1.36
COR-L 105	0.734	0.625	0.519	0.319	0.319	0.714	0.717	0.695	0.868	0.651	0.774	0.766	0.862	0.451	0.391	0.35	0.331	0.395	0.275	0.426
NCI-H596	0.985	0.905	0.924	0.8	0.746	1.01	0.899	0.933	0.944	1	1.05	1.13	1.16	0.931	1.14	0.982	1.13	0.927	0.817	1.23
LU99A	1.03	0.97	0.86	0.783	0.589	0.846	0.825	0.864	0.709	0.657	0.56	0.458	0.507	0.539	0.565	0.964	0.989	0.95	0.926	0.948
